# Measured values reported in patent US4558059A, “2-Substituted-phenylthiazole derivatives” (priority 1980, dated 1985).
# Where two headings read alike, the source gives them in different places.
# Key:
# [1] = test system: Peptic ulcer due to pyloric ligation; assay: Effect on peptic ulcer due to pyloric ligation; type: in vivo, male rats; details: intraperitoneal, rats; for Ulcer coefficient: 100 mg/kg, just after ligation, 15 hours; for inhibition in vivo at 100 mg/kg: Rattus norvegicus, ip, 15 h, control ulcer coefficient 42.0 mm^2, read-out: Rate of suppression of ulcer
# Procedure: Just after subjecting to ligation, each of the present compound suspended in an aqueous physiological saline solution was intraperitoneally administered to each rat, the control being injected with an aqueous physiological saline solution. Then, after 15 hours of fasting without taking water, the rats were sacrificed with ether and their stomachs were removed to examine under a microscope for anatomy. The length and width of the thus-formed ulcer in the stomach were determined and expressed by the product (mm^2), and the total sum of the products was represented as the ulcer coefficient.
# [2] = test system: Peptic ulcer due to acetic acid; assay: Effect on peptic ulcer due to acetic acid (duodenal); type: in vivo, male rats; details: for Ulcer coefficient: orally 3 times a day for 10 days from third day; for inhibition in vivo at 100 mg/kg: Rattus norvegicus, po, 240 h, read-out: Rate of suppression of ulcer
# Procedure: To the control group, only the aqueous physiological saline solution was administered. After the administration was over, the rats were sacrificed with ether, and their duodenum was removed to observe under a microscope for anatomy. The length and width of the thus-formed ulcer were measured and their product (expressed with mm^2) was recorded as the ulcer coefficient.
# [3] = Acute toxicity test, oral; details: mouse, in vivo, p.o., female ICR-mice, mortality for a week, Litchfield-Wilcoxon
# Procedure: Ten animals per group were kept in a transparent polycage at room temperature of 23°±1° C., and RH of 60 to 70%.
# After minutely pulverizing each one of the present compounds, the pulverized compound was suspended in an aqueous 5% sodium carboxymethylcellulose solution containing 20% of Tween-80. The aqueous suspension was forcibly orally administered by a metal stomach tube, the dose rate having been adjusted by changing the concentration of the present compound in the aqueous suspension.
# peptic ulcer = details: cited from earlier work
# [4] = 100 mg/kg, orally 3 times a day for 10 days, rats, control ulcer coefficient 9.0 mm^2
SMILES,Ulcer coefficient [1],inhibition in vivo at 100 mg/kg [1],"Ulcer coefficient ([2]; 100 mg/kg, rats)","inhibition in vivo at 100 mg/kg [2, 4]",LD50 at 168 h [3],inhibition in vivo at 100 mg/kg [2],"Effectiveness / curative effect ([2]; in words, rats)",Accelerating effect on the ulcer-curing (peptic ulcer; background statement),Side effects (peptic ulcer; in vivo)
"CNC(=O)c1sc(-c2cc(OC)c(OC)c(OC)c2)nc1C [Compound 1, 2-(3,4,5-trimethoxyphenyl)-4-methylthiazole-5-methylcarboxamide]",14.7 mm^2,65%,3.1 mm^2,65.6%,,,,,
"CCCNC(=O)c1sc(-c2cc(OC)c(OC)c(OC)c2)nc1C [Compound 2, 2-(3,4,5-trimethoxyphenyl)-4-methylthiazole-5-n-propylcarboxamide]",6.3 mm^2,85%,2.7 mm^2,70%,5600 mg/kg,,,,
"COc1ccc(-c2nc(C)c(C(N)=O)s2)cc1OC [Compound 3, 2-(3,4-dimethoxyphenyl)-4-methylthiazole-5-carboxamide]",0.8 mm^2,98.1%,1.3 mm^2,,,85.6%,,,
"CNC(=O)c1sc(-c2ccc(OC)c(OC)c2)nc1C [Compound 4, 2-(3,4-dimethoxyphenyl)-4-methylthiazole-5-methylcarboxamide]",11.0 mm^2,73.8%,1.8 mm^2,80%,,,,,
"CCCNC(=O)c1sc(-c2ccc(OC)c(OC)c2)nc1C [Compound 5, 2-(3,4-dimethoxyphenyl)-4-methylthiazole-5-n-propylcarboxamide]",8.4 mm^2,80%,2.9 mm^2,67.8%,,,,,
"COc1ccccc1-c1nc(C)c(C(N)=O)s1 [Compound 6, 2-(2-methoxyphenyl)-4-methylthiazole-5-carboxamide]",1.2 mm^2,97.1%,2.1 mm^2,76.7%,,,,,
"CNC(=O)c1sc(-c2ccccc2OC)nc1C [Compound 7, 2-(2-methoxyphenyl)-4-methylthiazole-5-methylcarboxamide]",8.6 mm^2,79.5%,1.7 mm^2,81.1%,,,,,
"CCCNC(=O)c1sc(-c2ccccc2OC)nc1C [Compound 8, 2-(2-methoxyphenyl)-4-methylthiazole-5-n-propylcarboxamide]",9.0 mm^2,78.6%,3.2 mm^2,64.4%,,,,,
"COc1ccc(-c2nc(C)c(C(N)=O)s2)cc1 [Compound 9, 2-(4-methoxyphenyl)-4-methylthiazole-5-carboxyamide]",0.9 mm^2,97.9%,2.0 mm^2,77.8%,,,,,
"CNC(=O)c1sc(-c2ccc(OC)cc2)nc1C [Compound 10, 2-(4-methoxyphenyl)-4-methylthiazole-5-methylcarboxamide]",6.4 mm^2,84.8%,3.1 mm^2,65.6%,,,,,
"CCCNC(=O)c1sc(-c2ccc(OC)cc2)nc1C [Compound 11, 2-(4-methoxyphenyl)-4-methylthiazole-5-n-propylcarboxamide]",8.5 mm^2,79.8%,2.5 mm^2,72.2%,,,,,
"CC(C)=CCCC(C)=CCCC(C)=CCCC(=O)OCC=C(C)CCC=C(C)C [Gefarnate, 3,7dimethyl-2,6-octadienyl 5,9,13trimethyl-4,8,12-tetradecatrienoate, reference compound]",36.9 mm^2,12.1%,7.2 mm^2,20%,,,only a slight effectiveness is recognized,,
CC1(C)[C@@H](OC(=O)CCC(=O)O)CC[C@]2(C)[C@H]3C(=O)C=C4[C@@H]5C[C@@](C)(C(=O)O)CC[C@]5(C)CC[C@@]4(C)[C@]3(C)CC[C@@H]12 [carbenoxolone],,,,,,,,excellent accelerating effect on the ulcer-curing,aldosterone-like side effects to cause hypertension and weakening of muscular function
